Experimental data as given in patent US10577362B2, “Substituted 2, 4-diamino-quinoline derivatives for use in the treatment of proliferative diseases” (GENOSCIENCE PHARMA, priority 2016, dated 2020).
Blank lines part the entries; values can stand above or below the compound they belong to.

Assays:
[1] = tested on: 786-O (renal adenocarcinoma) cell line; assay: CellTiter-Glo luminescent cell viability assay, 786-O; assay type: cell-based, human; details: Homo sapiens, 786-0; for viability at 4 µM / viability at 10 µM: 786-O, 72 h; for viability at 4 µM: compound at 4 μM; for viability at 10 µM: compound at 10 μM; for EC50: 786-O cell line, 72 h incubation, CellTiter-Glo, read-out: EC50, growth inhibition of 786-O
In short: (§1)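 Luminescent signal, normalised to diluent-treated cultures, defines % viability; EC50 is the concentration lowering it to 50%. Cells had been exposed to compound for 72 h at 37 °C in medium with 10% FBS, at a constant H2O or DMSO percentage.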

[2] = tested on: A375 (malignant melanoma) cell line; assay: CellTiter-Glo luminescent cell viability assay, A375; assay type: cell-based, human; details: Homo sapiens, A-375; for viability at 4 µM: A375, compound at 4 μM; for viability at 4 µM / viability at 10 µM: 72 h; for viability at 10 µM: A375, compound at 10 μM; for EC50: A375 cell line, 72 h incubation, CellTiter-Glo, read-out: EC50, growth inhibition of A375
In short: as §1

[3] = tested on: Huh7 (hepatocellular carcinoma) cell line; assay: CellTiter-Glo luminescent cell viability assay, Huh7; assay type: cell-based, human; details: Homo sapiens, Huh-7; for viability at 4 µM: Huh7, compound at 4 μM; for viability at 4 µM / viability at 10 µM: 72 h; for viability at 10 µM: Huh7, compound at 10 μM; for EC50: Huh7 cell line, 72 h incubation, CellTiter-Glo, read-out: EC50, growth inhibition of Huh7
In short: (§2)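 In a 72 h viability assay, compound-treated cells were compared against matched H2O or DMSO diluent controls by luminescence, points in at least duplicate.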

[4] = tested on: HCT-116 (colorectal carcinoma) cell line; assay: CellTiter-Glo luminescent cell viability assay, HCT-116; assay type: cell-based, human; details: Homo sapiens; for viability at 4 µM: HCT-116, compound at 4 μM; for viability at 4 µM / viability at 10 µM: 72 h; for viability at 10 µM: HCT-116, compound at 10 μM; for EC50: HCT-116 cell line, 72 h incubation, CellTiter-Glo, read-out: EC50, growth inhibition of HCT-116
In short: as §1

[5] = tested on: MOLM-14 (acute myeloid leukemia) cell line; assay: CellTiter-Glo luminescent cell viability assay, MOLM-14; assay type: cell-based, human; details: Homo sapiens; for viability at 4 µM: MOLM-14, compound at 4 μM; for viability at 4 µM / viability at 10 µM: 72 h; for viability at 10 µM: MOLM-14, compound at 10 μM; for EC50: MOLM-14 cell line, 72 h incubation, CellTiter-Glo, read-out: EC50, growth inhibition of MOLM-14
In short: as §2

[6] = tested on: HepG2 (hepatocellular carcinoma) cell line; assay: CellTiter-Glo luminescent cell viability assay, HepG2; assay type: cell-based, human; details: Homo sapiens; for viability at 4 µM / viability at 10 µM: HepG2, HepG, 72 h; for viability at 4 µM: compound at 4 μM; for viability at 10 µM: compound at 10 μM; for EC50: HepG2 cell line, 72 h incubation, CellTiter-Glo, read-out: EC50, growth inhibition of HepG2
In short: as §2

[7] = tested on: PANC-1 (prancreatic carcinoma) cell line; assay: CellTiter-Glo luminescent cell viability assay, PANC-1; assay type: cell-based; details: Homo sapiens; for viability at 4 µM: PANC-1, 4 μM; for viability at 4 µM / viability at 10 µM: 72 h, % of signal of diluent-treated cultures; for viability at 10 µM: PANC-1, 10 μM; for EC50: PANC-1 cell line, 72 h incubation, CellTiter-Glo, read-out: EC50 (growth inhibition assay of PANC-1 cell line)
In short: as §2

EC50 [1]: 0.5 to 5 µM
EC50 [2]: 0.5 to 5 µM
EC50 [3]: 0.5 to 5 µM
EC50 [4]: 0.5 to 5 µM
EC50 [5]: 0.5 to 5 µM
EC50 [6]: 0.5 to 5 µM
EC50 [7]: 5 to 10 µM
SMILES: N#Cc1c(NCc2ccc(Cl)cc2)nc2ccccc2c1N1CCC(N)CC1 [Compound 3170CN, 2-(4-chlorobenzylamino)-3-cyano-4-(4-aminopiperidin-1-yl)quinoline]
viability at 4 µM [1]: 36.5%
viability at 10 µM [1]: 0.4%
viability at 4 µM [2]: 0.5%
viability at 10 µM [2]: 0.3%
viability at 4 µM [3]: 79.4%
viability at 10 µM [3]: 0.4%
viability at 4 µM [4]: 0.7%
viability at 10 µM [4]: 0.2%
viability at 4 µM [5]: 84.2%
viability at 10 µM [5]: 0.4%
viability at 4 µM [6]: 0.6%
viability at 10 µM [6]: 0.3%
viability at 4 µM [7]: 89.6%
viability at 10 µM [7]: 0.6%

EC50 [1]: 0.5 to 5 µM
EC50 [2]: 0.5 to 5 µM
EC50 [3]: 0.5 to 5 µM
EC50 [4]: 0.5 to 5 µM
EC50 [5]: 0.5 to 5 µM
EC50 [6]: 0.5 to 5 µM
EC50 [7]: 5 to 10 µM
SMILES: CN1CCN(C2CCN(c3c(C#N)c(NCc4ccc(Cl)cc4)nc4ccccc34)CC2)CC1 [Compound 3188CN, 2-(4-chlorobenzylamino)-3-cyano-4-[4-(4-methylpiperazin-1-yl)piperidin-1-yl]quinoline]
viability at 4 µM [1]: 64%
viability at 10 µM [1]: 0.5%
viability at 4 µM [2]: 52.8%
viability at 10 µM [2]: 0.4%
viability at 4 µM [3]: 85.2%
viability at 10 µM [3]: 0.6%
viability at 4 µM [4]: 42.9%
viability at 10 µM [4]: 0.5%
viability at 4 µM [5]: 108%
viability at 10 µM [5]: 0.7%
viability at 4 µM [6]: 82.7%
viability at 10 µM [6]: 0.6%
viability at 4 µM [7]: 91.6%
viability at 10 µM [7]: 3.5%

The remaining lines, values behind:

SMILES: CC(C)(C)NC1CCN(c2c(C#N)c(NCc3ccco3)nc3ccccc23)CC1 [Compound 3302CN, 2-[(furan-2-ylmethyl)amino]-3-cyano-4-[4-(tert-butylamino)piperidin-1-yl]quinoline]
viability at 4 µM [1]: 86.1%
viability at 10 µM [1]: 48.1%
viability at 4 µM [2]: 81.6%
viability at 10 µM [2]: 14.3%
viability at 4 µM [3]: 76.6%
viability at 10 µM [3]: 40.1%
viability at 4 µM [4]: 57.4%
viability at 10 µM [4]: 10.8%
viability at 4 µM [5]: 82.3%
viability at 10 µM [5]: 67%
viability at 4 µM [6]: 83.3%
viability at 10 µM [6]: 57.5%
viability at 4 µM [7]: 95.8%
viability at 10 µM [7]: 82.3%

SMILES: CC(C)NC1CCCN(c2c(C#N)c(NCc3ccc(Cl)cc3)nc3ccccc23)C1 (centres unmarked) [Compound 3160CN, 2-(4-chlorobenzylamino)-3-cyano-4-[3-(isopropylamino)piperidin-1-yl]quinoline]
EC50 [1]: 5 to 10 µM
viability at 4 µM [1]: 65.2%
viability at 10 µM [1]: 0.5%
viability at 4 µM [2]: 18.2%
viability at 10 µM [2]: 0.4%
EC50 [2]: 0.5 to 5 µM
viability at 4 µM [3]: 80.8%
viability at 10 µM [3]: 0.5%
EC50 [3]: 5 to 10 µM
viability at 4 µM [4]: 57.7%
viability at 10 µM [4]: 0.4%
EC50 [4]: 0.5 to 5 µM
viability at 4 µM [5]: 88.7%
viability at 10 µM [5]: 0.6%
EC50 [5]: 5 to 10 µM
viability at 4 µM [6]: 62.1%
viability at 10 µM [6]: 0.5%
EC50 [6]: 0.5 to 5 µM
viability at 4 µM [7]: 96.1%
viability at 10 µM [7]: 1.2%
EC50 [7]: 5 to 10 µM

SMILES: Cc1cccc2c(N3CCC(NC(C)(C)C)CC3)c(C#N)c(NCc3ccc(Cl)cc3)nc12 [Compound 414CN, 2-(4-chlorobenzylamino)-3-cyano-4-[4-(tert-butylamino)piperidin-1-yl]-8-methylquinoline]
EC50 [1]: 0.5 to 5 µM
viability at 4 µM [1]: 0.7%
viability at 10 µM [1]: 0.3%
viability at 4 µM [2]: 0.3%
viability at 10 µM [2]: 0.4%
EC50 [2]: 0.5 to 5 µM
viability at 4 µM [3]: 79.8%
viability at 10 µM [3]: 0.5%
EC50 [3]: 0.5 to 5 µM
viability at 4 µM [4]: 0.3%
viability at 10 µM [4]: 0.3%
EC50 [4]: 0.5 to 5 µM
viability at 4 µM [5]: 0.5%
viability at 10 µM [5]: 0.3%
EC50 [5]: 0.5 to 5 µM
viability at 4 µM [6]: 9%
viability at 10 µM [6]: 0.5%
EC50 [6]: 0.5 to 5 µM
viability at 4 µM [7]: 91%
viability at 10 µM [7]: 0.8%
EC50 [7]: 5 to 10 µM
